# Assay: Pharmacokinetics after single inhaled dose of 5-MeO-DMT (LC-MS/MS)
# Assay type: in vivo, human
# Parameters: blood concentration relative to LLOQ: dose or concentration left out as unconfirmed
# Conditions: metabolite after inhaled 5-MeO-DMT
# Method: Blood samples were obtained at 1; 2; 4; 7; 10; 15; 20; 30; 45 min and 1; 1.5; 2; 3; 4 hours after administration.
# PK parameters were generated by algebraic analysis of the concentration versus time plots for each individual. The analysis was carried out using the software Phoenix WinNonlin 6.3.
structure (smiles),measurement,value
CN(C)CCc1c[nH]c2ccc(O)cc12 [bufotenine],blood concentration observations with uptitration scheme,Substantially similar observations
same,blood concentration relative to LLOQ,"Only in few samples, concentrations were above the lower level of quantification"
